This is an account of results in US20100233456A1, “LIGHT-STABILIZED POLYPROPYLENE” (SUMITOMO CHEMICAL COMPANY, LIMITED, priority 2007, published 2010).

Data set [1] can be described thus: Acid dissociation constant (pKa) by titration method.
Protocol: The pKa value is an index showing an inherent nature of the compound having a 2,2,6,6-tetramethylpiperidyl group represented by the general formula (I), and is measured by a titration method known in the art, which is a measurement method of an acid dissociation constant based on a Brøsted's definition.
The nature of data set [2]: Rate of weight loss by TG/DTA. The following applies: heated in nitrogen gas from 25° C. to 300° C. at 10° C./minute. The class given is physicochemical. As for the experimental part:
Regarding the requirement (c), the rate of decrease in weight by heating under the above conditions is preferably less than 5%, and further preferably less than 3%, from a viewpoint of an emission amount of VOC and light stability. A rate of decrease in weight of the hindered amine light stabilizer (B) is measured using a thermo gravimetry differential thermal analyzer (hereinafter, referred to as TG/DTA). Specifically, the hindered amine light stabilizer (B) is heated from 25° C. to 300° C. at a rate of 10° C./minute in a nitrogen gas atmosphere, which gas is flowed at a constant rate of 100 mL/minute, thereby measuring the rate (percentage) of a weight loss to the original weight with a thermobalance.

What is called pKa is the pH at which an ionisable group is half protonated. Low values mean a group that gives up its proton readily, high ones a group that holds its proton tightly.

For the molecule `CN1C(C)(C)CC(OC(=O)CC(C(=O)OC2CC(C)(C)N(C)C(C)(C)C2)C(CC(=O)OC2CC(C)(C)N(C)C(C)(C)C2)C(=O)OC2CC(C)(C)N(C)C(C)(C)C2)CC1(C)C` (stereo not shown) [Example B-2, tetrakis(1,2,2,6,6-pentamethyl-4-piperidyl) 1,2,3,4-buteane tetracarboxylate], the pKa in data set [1] is on record as 8.9. Further, in data set [2], the “Rate of weight loss by TG-DTA” value is given as 5.8%.
For the molecule `CC1(C)CC(OC(=O)CCCCCCCCC(=O)OC2CC(C)(C)NC(C)(C)C2)CC(C)(C)N1` [Example B-3, bis(2,2,6,6-tetramethyl-4-piperidyl) sebacate], the “Rate of weight loss by TG-DTA” value in data set [2] came to 19.6%.
For the molecule `CCCCCCCCON1C(C)(C)CC(OC(=O)CCCCCCCCC(=O)OC2CC(C)(C)N(OCCCCCCCC)C(C)(C)C2)CC1(C)C` [Example B-4, bis(1-octyloxy-2,2,6,6-tetramethylpiperidin-4-yl) sebacate], the “Rate of weight loss by TG-DTA” value in data set [2] came out at 68.6%.
Same read-out and setting: then `CC(C)(C)c1ccc(OC(=O)c2cc(C(C)(C)C)c(O)c(C(C)(C)C)c2)c(C(C)(C)C)c1` [Example B-6, 2,4-di-t-butylphenyl-3,5-di-t-butyl-4-hydroxybenzoate], with 31.6%.
Consider “N,N-bis(3-aminopropyl)ethylenediamine. 2,4-bis[N-butyl-N-(1,2,2,6,6-pentamethyl-4-piperidyl)amino]-6-chloro-1,3,5-triazine condensate [Example B-5]”, for which the pKa in data set [1] was 9.2. Moreover, in data set [2], the “Rate of weight loss by TG-DTA” value was found to be 0.6%.
